Literature values as cited in patent publication US20070259967A1, “Methods of Diagnosis” (priority 2004, published 2007).

What was measured:
[1] = amphetamine administered to children with ADHD; Zametkin et al. 1984
Platelet MAO-B = target: T1, Platelet MAO-B (Homo sapiens, UniProt P27338); details: 0.24 mM pargyline added as blank; 20 μM PEA, 37° C., 30 minutes; method from Zhou et al.
T1 construct: the platelet pellet was resuspended with saline to obtain a concentration of 107 platelets/ml and then sonicated for 10 seconds; from tissue; host or cells: blood platelets (platelet rich plasma from fasting venous blood)
T1 sequence (P27338 1-520): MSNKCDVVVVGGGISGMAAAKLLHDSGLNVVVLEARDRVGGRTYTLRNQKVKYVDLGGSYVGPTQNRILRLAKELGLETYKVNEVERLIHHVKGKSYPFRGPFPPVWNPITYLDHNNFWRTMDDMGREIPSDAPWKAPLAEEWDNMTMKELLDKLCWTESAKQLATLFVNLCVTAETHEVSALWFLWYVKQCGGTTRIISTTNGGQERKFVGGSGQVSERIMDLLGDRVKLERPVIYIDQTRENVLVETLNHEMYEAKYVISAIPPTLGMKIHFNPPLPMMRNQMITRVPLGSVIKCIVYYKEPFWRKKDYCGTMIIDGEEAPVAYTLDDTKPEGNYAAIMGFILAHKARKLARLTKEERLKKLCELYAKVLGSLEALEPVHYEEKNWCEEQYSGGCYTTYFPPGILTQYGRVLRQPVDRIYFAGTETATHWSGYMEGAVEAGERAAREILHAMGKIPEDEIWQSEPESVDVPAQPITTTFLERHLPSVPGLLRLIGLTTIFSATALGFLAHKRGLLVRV

[2] = majority of the cited clinical studies of selegiline in ADHD

## CC(N)Cc1ccccc1 (stereo not drawn) [amphetamine]
[1]
  increase in the excretion of urinary phenylethylamine (PEA): 1600%

## C#CCN(C)Cc1ccccc1 [pargyline]
Platelet MAO-B
  production of PAA (phenylacetic acid): no production of PAA

## C#CCN(C)[C@H](C)Cc1ccccc1.Cl [selegiline]
[2]
  benefit to ADHD patients compared with psycho-stimulant treatment: less benefit to the patients than psycho-stimulant treatment
